Results reported in patent US20240197728A1, “METHODS AND PHARMACEUTICAL COMPOSITIONS FOR TREATING REFRACTORY EPILEPSY” (INSERM (INSTITUT NATIONAL DE LA SANTÉ ET DE LA RECHERCHE …, priority 2021, published 2024).

How the values were obtained:
[1] = target: T1, recombinant human STK39 (SPAK) (Homo sapiens, UniProt Q9UEW8); test: Radiometric kinase profiling assay; format: biochemical; conditions: 70 μM ATP
T1 construct: purchased Eurofins Discovery (KinaseProfiler, contractor)
Experimental: (§1) Kinase activity profiles (data not shown) were performed using radiometric assays to measure kinase catalytic activity for PCPZ concentrations ranging 0.1-500 μM in DMSO or CLP257 concentrations ranging 0.1-1000 μM in DMSO, in the presence of 70 μM ATP. Equimolar DMSO concentrations were used as control. Additional information on the kinase profiler assay can be obtained from the contractor's website. (https://www.eurofinsdiscoveryservices.com/cms/cms-content/services/in-vitro-assays/kinases/kinase-profiler).

recombinant human OSR1 = target: T2, recombinant human OSR1 (Homo sapiens, UniProt O95747); test: Radiometric kinase profiling assay; format: biochemical; conditions: 70 μM ATP
T2 construct: purchased Eurofins Discovery (KinaseProfiler, contractor)
Experimental: as §1

recombinant human WNK3 = target: T3, recombinant human WNK3 (Homo sapiens, UniProt Q9BYP7); test: Radiometric kinase profiling assay; format: biochemical; conditions: 70 μM ATP
T3 construct: purchased Eurofins Discovery (KinaseProfiler, contractor)
Experimental: as §1

recombinant human WNK1 = target: T4, recombinant human WNK1 (Homo sapiens, UniProt Q9H4A3); test: Radiometric kinase profiling assay; format: biochemical; conditions: 70 μM ATP
T4 construct: purchased Eurofins Discovery (KinaseProfiler, contractor)
Experimental: as §1

OSR1 = test: Immunoblot of OSR1 phosphorylation and expression in hippocampo-cortical slices; format: cell-based, rat; conditions: vs DMSO
Experimental: For all experiments on hippocampal cultures, neurons were pre-incubated for 2 hours with either DMSO, PCPZ or CLP257 in a CO2 incubator set at 37° C. Drugs were added directly to the culture medium. For electrophysiology experiments, neurons were also recorded in presence of these drugs in the bath. For biochemistry experiments on rat hippocampo-cortical slices, slices were incubated with either DMSO (vehicle), CLP257, PCPZ, WNK463 or sodium orthovanadate for 2 hours in interface chambers set at 37° C. For human tissue experiments, slices were pre-incubated with either DMSO, CLP257 or PCPZ for 2 hours in interface chambers set at 37° C. and then also recorded in presence of these compounds.
8-weeks old Sprague Dawley male rats were anesthetized by intraperitoneal ketamine/xylazine injection (120/10 mg/kg) and perfused transcardially with ice-cold (0-4° C.), oxygenated solution (O2/CO2 95/5%), containing (in mM): N-methyl-d-glucamine 93, KCl 2.5, NaH2PO4 1.2, NaHCO330, HEPES 20, D-glucose 20, ascorbic acid 5, sodium pyruvate 3, MgSO4 10 and CaCl2) 0.5 (300-310 mOsm, pH7.4). Brains were removed and transverse hippocampo-cortical slices (400 m thick) were prepared in the same solution using a vibratome (HM650V, Microm). Slices were then incubated for 2-hours with DMSO, the KCC2 enhancers (CLP257, PCPZ, WNK43) or sodium orthovanadate in an interface chamber containing artificial cerebrospinal fluid (ACSF) composed of (in mM): D-glucose 10, KCl 3.5, NaHOC3 26, NaH2PO4 1.25, NaCl 126, CaCl2) 1.6 and MgCl2 1.2 (290 mOsm), equilibrated with 5% CO2 in 95% 02. After the treatments, slices were washed with cold PBS, instantaneously frozen with liquid nitrogen and stored at −80° C.
Slices were mechanically lysed on ice, using a 2 mL Dounce, in a buffer containing (in mM): Tris/HCl, pH 7.5 50, EGTA 1, EDTA 1, sodium orthovanadate 1, sodium-B-glycerophosphate 10, sodium fluoride 50, sodium pyrophosphate 5, sucrose 270, benzamidine 1, phenylmethylsulfonyl fluoride 2, Triton […], (v/v) 2-mercaptoethanol 0.1% and protease inhibitors (Roche). After complete homogenization, samples were centrifuged (16,000×g at 4° C. for 10 min) and the supernatant was collected. Protein quantification was done using Pierce BCA Protein Assay kit (Thermo Scientific) with BSA as standard.
Samples were subjected to electrophoresis on polyacrylamide gradient gels (4-12% bis-tris gels) and transferred to nitrocellulose membranes. Membranes were rinsed with TBS-tween solution (TBST; Invitrogen) and blocked with 5% (w/v) skim milk. The membranes were then immunoblotted in 5% (w/v) skim milk in TBST with a primary antibody against KCC2 (rabbit, 07-432; Millipore; 1:1000), or phosphotyrosine (mouse, clone 4G10, Millipore, 1:1000), and a mouse primary antibody against neuron-specific beta-III tubulin overnight at 4° C. (clone 2G10; T8578; Sigma-Aldrich; 1:1000). They were then washed three times with distillated water, three times with TBST-milk solution and incubated for one hour at RT with goat secondary antibodies anti-rabbit IRDye 800 (1:3000; LI-COR), goat anti-mouse IRDye 700 (1:3000; LI-COR) or donkey anti-sheep DyLight 800 (1:3000; Rockland). Membranes were then washed again with TBST three times and one time with TBS. Fluorescence was detected and the relative intensities of immunoblot bands were determined using Odyssey infrared imaging system (LI-COR Bioscience). […]

synaptic GABAA receptors = test: Miniature inhibitory postsynaptic currents (mIPSCs) in hippocampal neurons; format: cell-based, rat
[2] = tested on: extrasynaptic GABAA receptors; test: GABAA receptor-mediated currents evoked by focal isoguvacine or RubiGABA uncaging; format: cell-based, rat

T4 sequence (Q9H4A3 whole entry): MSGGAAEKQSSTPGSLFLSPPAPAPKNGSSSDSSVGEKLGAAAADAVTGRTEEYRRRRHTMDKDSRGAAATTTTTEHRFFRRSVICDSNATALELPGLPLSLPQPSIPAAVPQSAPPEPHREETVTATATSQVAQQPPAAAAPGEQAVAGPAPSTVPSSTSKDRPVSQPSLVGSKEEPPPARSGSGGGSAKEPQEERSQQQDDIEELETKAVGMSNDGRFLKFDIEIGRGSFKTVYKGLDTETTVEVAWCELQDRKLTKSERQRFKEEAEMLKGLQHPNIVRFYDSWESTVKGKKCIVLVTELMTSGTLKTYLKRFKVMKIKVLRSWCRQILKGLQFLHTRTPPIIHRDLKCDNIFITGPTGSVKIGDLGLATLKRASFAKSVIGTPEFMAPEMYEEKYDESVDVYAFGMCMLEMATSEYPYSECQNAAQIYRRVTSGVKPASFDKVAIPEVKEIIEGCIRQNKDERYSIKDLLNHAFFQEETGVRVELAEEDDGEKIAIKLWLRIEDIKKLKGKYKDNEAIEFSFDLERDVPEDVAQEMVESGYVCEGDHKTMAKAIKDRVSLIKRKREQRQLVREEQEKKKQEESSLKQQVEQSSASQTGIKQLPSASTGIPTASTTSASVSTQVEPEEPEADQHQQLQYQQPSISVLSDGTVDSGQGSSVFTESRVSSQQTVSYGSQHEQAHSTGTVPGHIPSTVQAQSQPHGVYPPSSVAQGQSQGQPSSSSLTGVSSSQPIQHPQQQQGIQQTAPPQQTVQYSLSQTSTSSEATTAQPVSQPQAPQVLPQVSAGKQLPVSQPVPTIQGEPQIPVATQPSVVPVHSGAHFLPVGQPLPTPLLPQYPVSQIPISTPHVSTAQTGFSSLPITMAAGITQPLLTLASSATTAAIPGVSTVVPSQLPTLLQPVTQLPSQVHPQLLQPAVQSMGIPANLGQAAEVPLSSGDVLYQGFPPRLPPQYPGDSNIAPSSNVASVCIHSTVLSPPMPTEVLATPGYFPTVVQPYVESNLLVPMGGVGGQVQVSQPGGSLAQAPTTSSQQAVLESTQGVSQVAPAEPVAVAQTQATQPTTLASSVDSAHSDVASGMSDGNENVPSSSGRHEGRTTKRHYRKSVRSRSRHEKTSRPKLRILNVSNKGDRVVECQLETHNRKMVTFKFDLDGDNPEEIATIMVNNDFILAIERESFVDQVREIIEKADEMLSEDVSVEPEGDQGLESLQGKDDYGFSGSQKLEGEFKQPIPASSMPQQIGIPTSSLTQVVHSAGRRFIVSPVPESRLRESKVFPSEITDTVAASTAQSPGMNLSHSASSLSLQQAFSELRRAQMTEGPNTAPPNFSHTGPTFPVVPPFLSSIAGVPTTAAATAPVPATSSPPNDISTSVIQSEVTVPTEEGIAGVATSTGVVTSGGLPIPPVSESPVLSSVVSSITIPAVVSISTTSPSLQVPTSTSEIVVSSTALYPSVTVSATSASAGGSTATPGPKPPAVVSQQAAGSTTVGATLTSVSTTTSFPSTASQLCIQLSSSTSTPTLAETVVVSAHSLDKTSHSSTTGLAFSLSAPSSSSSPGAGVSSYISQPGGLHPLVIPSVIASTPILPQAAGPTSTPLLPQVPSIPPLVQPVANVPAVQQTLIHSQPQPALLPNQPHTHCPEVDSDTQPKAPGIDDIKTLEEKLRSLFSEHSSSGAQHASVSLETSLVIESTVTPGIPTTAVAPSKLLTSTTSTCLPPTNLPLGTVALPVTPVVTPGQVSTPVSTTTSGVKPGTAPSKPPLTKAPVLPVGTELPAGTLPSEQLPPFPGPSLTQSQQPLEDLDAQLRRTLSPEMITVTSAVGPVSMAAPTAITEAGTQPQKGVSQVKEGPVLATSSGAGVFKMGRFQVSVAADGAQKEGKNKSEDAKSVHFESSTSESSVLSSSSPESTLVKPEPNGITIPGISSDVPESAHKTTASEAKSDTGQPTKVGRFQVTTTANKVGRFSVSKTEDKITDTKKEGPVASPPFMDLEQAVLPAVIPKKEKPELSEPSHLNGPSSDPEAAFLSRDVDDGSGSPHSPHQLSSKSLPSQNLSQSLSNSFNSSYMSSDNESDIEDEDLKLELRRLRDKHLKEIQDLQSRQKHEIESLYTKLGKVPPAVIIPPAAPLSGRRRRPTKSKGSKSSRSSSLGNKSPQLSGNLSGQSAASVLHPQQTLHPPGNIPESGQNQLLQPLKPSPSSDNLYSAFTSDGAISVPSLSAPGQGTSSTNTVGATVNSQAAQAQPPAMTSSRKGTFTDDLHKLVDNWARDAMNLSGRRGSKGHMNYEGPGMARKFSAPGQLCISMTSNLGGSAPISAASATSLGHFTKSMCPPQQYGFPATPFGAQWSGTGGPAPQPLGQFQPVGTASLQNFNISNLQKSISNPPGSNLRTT
T2 sequence (O95747 whole entry): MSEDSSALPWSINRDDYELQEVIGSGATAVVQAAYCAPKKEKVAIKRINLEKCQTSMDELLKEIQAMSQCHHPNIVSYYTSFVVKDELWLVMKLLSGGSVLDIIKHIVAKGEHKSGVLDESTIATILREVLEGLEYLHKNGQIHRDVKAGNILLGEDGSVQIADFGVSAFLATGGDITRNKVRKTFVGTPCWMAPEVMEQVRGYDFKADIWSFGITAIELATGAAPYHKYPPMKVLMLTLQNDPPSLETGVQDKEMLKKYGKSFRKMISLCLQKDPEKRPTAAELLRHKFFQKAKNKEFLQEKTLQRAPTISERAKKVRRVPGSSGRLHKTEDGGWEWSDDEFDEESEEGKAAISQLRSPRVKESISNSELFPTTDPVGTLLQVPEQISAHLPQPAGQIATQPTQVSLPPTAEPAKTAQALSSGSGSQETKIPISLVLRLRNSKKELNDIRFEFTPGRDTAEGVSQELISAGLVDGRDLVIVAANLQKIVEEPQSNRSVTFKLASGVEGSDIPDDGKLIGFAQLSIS
T3 sequence (Q9BYP7 whole entry): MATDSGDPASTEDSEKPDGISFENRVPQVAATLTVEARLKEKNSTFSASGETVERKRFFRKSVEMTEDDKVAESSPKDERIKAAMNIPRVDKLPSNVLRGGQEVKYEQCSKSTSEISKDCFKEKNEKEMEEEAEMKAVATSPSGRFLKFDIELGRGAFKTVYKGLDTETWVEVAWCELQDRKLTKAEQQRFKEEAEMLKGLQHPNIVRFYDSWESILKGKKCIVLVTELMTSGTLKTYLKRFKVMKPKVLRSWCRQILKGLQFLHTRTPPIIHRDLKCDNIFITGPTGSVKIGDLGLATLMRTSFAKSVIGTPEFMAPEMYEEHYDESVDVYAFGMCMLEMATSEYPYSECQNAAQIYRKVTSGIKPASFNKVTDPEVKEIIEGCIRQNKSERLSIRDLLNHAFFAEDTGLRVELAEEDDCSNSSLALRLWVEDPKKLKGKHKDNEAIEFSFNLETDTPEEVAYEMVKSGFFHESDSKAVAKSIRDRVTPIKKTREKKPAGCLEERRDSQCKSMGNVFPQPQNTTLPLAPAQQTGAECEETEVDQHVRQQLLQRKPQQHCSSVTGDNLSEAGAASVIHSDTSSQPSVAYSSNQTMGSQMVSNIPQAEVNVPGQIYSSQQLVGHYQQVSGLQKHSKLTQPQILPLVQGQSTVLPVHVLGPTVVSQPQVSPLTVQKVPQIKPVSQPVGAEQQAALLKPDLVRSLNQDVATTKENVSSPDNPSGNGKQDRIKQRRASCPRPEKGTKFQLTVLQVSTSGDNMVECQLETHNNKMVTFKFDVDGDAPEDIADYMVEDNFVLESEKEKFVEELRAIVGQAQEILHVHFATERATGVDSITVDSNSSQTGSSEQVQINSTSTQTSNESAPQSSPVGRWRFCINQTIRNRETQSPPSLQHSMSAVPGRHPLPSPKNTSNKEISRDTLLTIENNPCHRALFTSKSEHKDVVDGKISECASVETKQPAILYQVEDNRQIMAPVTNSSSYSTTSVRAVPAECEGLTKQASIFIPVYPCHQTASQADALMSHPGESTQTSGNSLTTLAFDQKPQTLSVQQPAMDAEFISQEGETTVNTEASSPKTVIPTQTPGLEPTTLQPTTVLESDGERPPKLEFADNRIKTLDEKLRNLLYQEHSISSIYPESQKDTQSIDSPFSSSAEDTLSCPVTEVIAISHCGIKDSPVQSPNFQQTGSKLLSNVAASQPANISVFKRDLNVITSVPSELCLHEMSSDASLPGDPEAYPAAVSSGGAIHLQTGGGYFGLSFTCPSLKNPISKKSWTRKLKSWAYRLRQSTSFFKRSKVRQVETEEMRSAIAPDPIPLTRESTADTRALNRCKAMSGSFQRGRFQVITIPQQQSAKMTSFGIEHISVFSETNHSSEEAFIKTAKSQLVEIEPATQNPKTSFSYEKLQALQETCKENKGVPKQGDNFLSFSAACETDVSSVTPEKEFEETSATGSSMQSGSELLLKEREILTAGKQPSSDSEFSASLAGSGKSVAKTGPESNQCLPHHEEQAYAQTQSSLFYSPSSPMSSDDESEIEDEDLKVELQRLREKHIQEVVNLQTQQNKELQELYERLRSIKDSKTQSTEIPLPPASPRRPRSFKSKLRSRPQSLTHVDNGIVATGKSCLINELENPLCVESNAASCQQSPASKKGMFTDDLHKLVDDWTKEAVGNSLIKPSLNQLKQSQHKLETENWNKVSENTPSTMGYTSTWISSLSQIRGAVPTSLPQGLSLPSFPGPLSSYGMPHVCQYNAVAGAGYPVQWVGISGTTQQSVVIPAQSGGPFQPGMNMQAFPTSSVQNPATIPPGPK

SMILES | inhibition of SPAK kinase activity ([1]; CLP257 0.1-1000 μM) | inhibition of OSR1 kinase activity (recombinant human OSR1; CLP257 0.1-1000 μM) | inhibition of WNK3 kinase activity (recombinant human WNK3; CLP257 0.1-1000 μM) | inhibition of WNK1 kinase activity (recombinant human WNK1; CLP257 0.1-1000 μM) | change of OSR1 phosphorylation (S325 residue) (OSR1; 100 μM CLP257, 2 h) | change of total expression of OSR1 (OSR1; 100 μM CLP257, 2 h) [%] | mIPSCs decay time constant (synaptic GABAA receptors; 100 μM CLP257, before drug 12.36±0.75) [ms] | mIPSCs amplitude (synaptic GABAA receptors; 100 μM CLP257, before drug 42.32±3.40) [pA] | decay time constant of GABAA receptor-mediated currents ([2]; 100 μM CLP257, RubiGABA 30 μM, control 124.39±9.12) [ms] | amplitude of GABAA receptor-mediated currents ([2]; 100 μM CLP257, RubiGABA 30 μM, control 164.70±4.56) [pA] | inhibition of SPAK kinase activity ([1]; PCPZ 0.1-500 μM) | inhibition of OSR1 kinase activity (recombinant human OSR1; PCPZ 0.1-500 μM) | inhibition of WNK3 kinase activity (recombinant human WNK3; PCPZ 0.1-500 μM) | inhibition of WNK1 kinase activity (recombinant human WNK1; PCPZ 0.1-500 μM) | change of OSR1 phosphorylation (S325 residue) (OSR1; 10 μM PCPZ, 2 h) | change of total expression of OSR1 (OSR1; 10 μM PCPZ, 2 h) | mIPSCs decay time constant (synaptic GABAA receptors; 10 μM PCPZ, before drug 10.66±0.80) [ms] | mIPSCs amplitude (synaptic GABAA receptors; 10 μM PCPZ, before drug 42.49±2.54) [pA] | decay time constant of GABAA receptor-mediated currents ([2]; acute 10 μM PCPZ, isoguvacine 100 μM, control 127.66±10.23) [ms] | amplitude of GABAA receptor-mediated currents ([2]; acute 10 μM PCPZ, isoguvacine 100 μM, control 150.73±17.50) [pA]
O=C1N=C(N2CCCCN2)S/C1=C\c1ccc(F)cc1O [CLP257, (5Z)-5-[(4-Fluoro-2-hydroxyphenyl)methylene]-2-(tetrahydro-1-(2H)-pyridazinyl)-4(5H)-thiazolone] | no direct inhibitory effect | no direct inhibitory effect | no direct inhibitory effect | no direct inhibitory effect | +11.50±18.50% | −2.24±8.27 | 12.53 ± 1.01 | 43.77±2.86 | 218.22 ± 21.05 | 162.04±6.62 | – | – | – | – | – | – | – | – | – | –
CN1CCN(CCCN2c3ccccc3Sc3ccc(Cl)cc32)CC1 [PCPZ, prochlorperazine] | – | – | – | – | – | – | – | – | – | – | no direct inhibitory effect | no direct inhibitory effect | no direct inhibitory effect | no direct inhibitory effect | +11.80±23.50% | +26.3±12.8% | 10.17 ± 0.71 | 42.92±2.55 | 130.81 ± 10.48 | 157.51±25.46
